US20220288052A1, “COMPOUND FOR COMBINATION TREATMENT” (priority 2019, published 2022)
Where two headings read alike, the source gives them in different places.

What was measured:
[1] = Purity and stability study (solution, photo, oxidation, solid state); type: physicochemical
Procedure: A purity and stability study was performed on exo-7-(8-aza-bicyclo[3.2.1]oct-3-yloxy)-chromen-2-one (compound (I)) hydrochloride anhydrate, showing that the compound is chemically and thermodynamically stable as solid and in solution, but sensitive to light when in solution.

[2] = molecular target: NA transporter (Homo sapiens, UniProt P23975); assay: ^3H-Nisoxetine binding, human
Chain of NA transporter (P23975 whole entry): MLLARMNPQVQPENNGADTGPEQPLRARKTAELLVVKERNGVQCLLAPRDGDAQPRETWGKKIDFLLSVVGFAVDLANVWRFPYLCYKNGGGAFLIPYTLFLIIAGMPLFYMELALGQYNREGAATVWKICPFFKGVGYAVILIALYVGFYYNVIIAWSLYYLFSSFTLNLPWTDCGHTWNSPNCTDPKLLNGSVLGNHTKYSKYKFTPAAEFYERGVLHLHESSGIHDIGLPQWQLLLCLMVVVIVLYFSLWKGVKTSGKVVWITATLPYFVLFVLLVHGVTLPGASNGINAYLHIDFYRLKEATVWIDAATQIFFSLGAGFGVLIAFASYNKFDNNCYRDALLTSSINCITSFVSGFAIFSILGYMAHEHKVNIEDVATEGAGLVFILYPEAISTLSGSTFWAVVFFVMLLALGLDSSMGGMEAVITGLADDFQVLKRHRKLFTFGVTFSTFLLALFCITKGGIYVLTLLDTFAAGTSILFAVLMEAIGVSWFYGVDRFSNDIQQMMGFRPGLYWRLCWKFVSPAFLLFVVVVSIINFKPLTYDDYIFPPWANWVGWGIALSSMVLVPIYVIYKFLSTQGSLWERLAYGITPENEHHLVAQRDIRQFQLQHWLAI
From the text: Compound (I) has been characterized as a monoamine reuptake inhibitor, based on the profile in a series of functional assays (Table 2).

[3] = molecular target: Nicotinic α4β2 (Rattus norvegicus, UniProt P09483+P12390); assay: In-house nicotinic binding assay, Nicotinic α4β2
Chain of Nicotinic α4β2 (P09483 31-630): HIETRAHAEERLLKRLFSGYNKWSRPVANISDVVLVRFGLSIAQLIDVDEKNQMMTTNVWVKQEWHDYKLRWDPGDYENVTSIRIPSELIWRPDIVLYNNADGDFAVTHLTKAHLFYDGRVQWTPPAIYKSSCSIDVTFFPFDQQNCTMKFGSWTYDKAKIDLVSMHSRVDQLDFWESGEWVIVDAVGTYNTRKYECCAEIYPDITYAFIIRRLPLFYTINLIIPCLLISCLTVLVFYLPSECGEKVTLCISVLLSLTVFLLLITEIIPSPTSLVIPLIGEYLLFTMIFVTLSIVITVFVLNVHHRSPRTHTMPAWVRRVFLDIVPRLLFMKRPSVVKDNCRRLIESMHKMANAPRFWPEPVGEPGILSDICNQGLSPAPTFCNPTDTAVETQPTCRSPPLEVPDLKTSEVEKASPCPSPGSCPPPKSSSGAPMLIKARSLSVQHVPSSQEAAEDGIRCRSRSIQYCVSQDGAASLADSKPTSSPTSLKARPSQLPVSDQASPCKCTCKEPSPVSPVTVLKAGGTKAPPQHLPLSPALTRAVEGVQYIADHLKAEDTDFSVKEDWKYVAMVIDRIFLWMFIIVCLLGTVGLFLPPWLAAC
Chain of Nicotinic α4β2 (P12390 25-500): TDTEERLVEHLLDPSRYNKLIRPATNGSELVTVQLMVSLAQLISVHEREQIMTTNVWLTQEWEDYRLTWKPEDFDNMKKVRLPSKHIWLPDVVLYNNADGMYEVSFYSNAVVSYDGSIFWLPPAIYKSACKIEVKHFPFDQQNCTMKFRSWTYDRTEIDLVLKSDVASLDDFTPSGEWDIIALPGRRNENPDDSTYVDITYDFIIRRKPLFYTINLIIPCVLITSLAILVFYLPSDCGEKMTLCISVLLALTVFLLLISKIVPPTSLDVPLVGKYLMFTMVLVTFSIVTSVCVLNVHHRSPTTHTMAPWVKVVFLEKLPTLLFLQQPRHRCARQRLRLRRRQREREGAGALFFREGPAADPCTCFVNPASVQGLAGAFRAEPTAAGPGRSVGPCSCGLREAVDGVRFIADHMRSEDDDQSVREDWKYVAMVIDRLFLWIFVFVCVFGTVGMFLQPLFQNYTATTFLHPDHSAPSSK

[4] = molecular target: Sigma σ1 (Homo sapiens, UniProt Q99720); assay: MDS LeadProfilingScreen, Sigma σ1; type: binding
Chain of Sigma σ1 (Q99720 whole entry): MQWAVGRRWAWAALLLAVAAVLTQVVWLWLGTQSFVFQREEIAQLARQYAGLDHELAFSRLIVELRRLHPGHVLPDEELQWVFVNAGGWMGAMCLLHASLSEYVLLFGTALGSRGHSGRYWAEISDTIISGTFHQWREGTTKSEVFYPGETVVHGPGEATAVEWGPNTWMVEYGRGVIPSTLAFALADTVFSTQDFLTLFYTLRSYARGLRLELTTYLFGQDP

[5] = tested on: brain levels of serotonin (5-HT); assay: In vivo microdialysis, 5-HT; design: species or system rat
Procedure: The purpose of the present study was to examine, by in vivo microdialysis technique, the effects after administration of compound (I) on brain levels of serotonin, noradrenalin and dopamine within the ventral hippocampus (Hipp), prefrontal cortex (PFC), striatum (STR) and nucleus accumbens (N.Acc) of anaesthetized rats and mice. […] Compound (I) was tested following subcutaneous injections at dose levels between 0.25-30 mg/kg.

[6] = tested on: NMRI mice; assay: Mouse forced swim test (mFST); type: in vivo
Procedure: Compound (I) was tested in two of the most widely used behavioural screens for predicting antidepressant effects in the clinic: the mouse forced swim test (mFST) and mouse tail suspension test (mTST).
In order to further characterize the role played by 5-HT and DA-ergic neurotransmission in the antidepressant-like effects of compound (I), the potential involvement of 5-HT1A and D1 receptors was investigated in the mFST.

[7] = tested on: C57 mice; assay: Mouse tail suspension test (mTST); type: in vivo; details: i.p. 30 min
Procedure: C57 males, 25-28 g, Taconic, 16/8-06. Mice acclimatized to ground floor 5 days before testing. Mice saline injected once a day twice before test day. 22° C., N=7-8.

[8] = Bioavailability study in dog; type: in vivo; details: for half-life / AUC(0-inf) / Cmax / Tmax / bioavailability / Vd / clearance: plasma; for bioavailability: 2.5 mg/kg p.o. vs 0.5 mg/kg i.v.
Procedure: A bioavailability study was also conducted in dogs. […] The i.v. dose, which was given 7 days later, was chosen as 0.5 mg/kg in order to prevent observable CNS effects. The difference between the p.o. and the i.v. dose might overestimate the bioavailability to a certain extent. […] T½ is in the same range in the two dogs and after both p.o. and i.v. administration (1.4-1.7 h).

[9] = Tissue distribution after single dose, mouse; type: in vivo; details: po; for AUC(0-t): female, NMRI, mouse 10 mg/kg p.o., read-out: AUC(0-24 h); for half-life: female NMRI mouse 10 mg/kg p.o., read-out: T½ (converted)
Procedure: Compound (I) was dosed to female NMRI mice 10 mg/kg p.o. Plasma was taken 0.5, 1, 2, 4, 6 and 24 post dose. Brain, liver and lung were taken 1, 4 and 24 hours post dose.
AUC and T½ were calculated for plasma and organs, even though the data are very sparse for the organs.

[10] = Metabolic stability in liver microsomes, mouse; type: in vitro ADME
Procedure: (§1) The metabolic stability of compound (I) was tested in liver microsomes from all in house available species at 1 and 5 μM. One metabolite of 16 mass units higher than parent, was found in all incubations, except with human liver microsomes.

[11] = Metabolic stability in liver microsomes, minipig; type: in vitro ADME
Procedure: as §1

[12] = molecular target: CYP1A2 (Homo sapiens, UniProt P05177); assay: CYP450 inhibition, cocktail of selective substrates, 1A2; type: in vitro ADME; details: CYP 1A2, Phenacetin to Paracetamol; read-out: IC50 of compound (I)
Chain of CYP1A2 (P05177 whole entry): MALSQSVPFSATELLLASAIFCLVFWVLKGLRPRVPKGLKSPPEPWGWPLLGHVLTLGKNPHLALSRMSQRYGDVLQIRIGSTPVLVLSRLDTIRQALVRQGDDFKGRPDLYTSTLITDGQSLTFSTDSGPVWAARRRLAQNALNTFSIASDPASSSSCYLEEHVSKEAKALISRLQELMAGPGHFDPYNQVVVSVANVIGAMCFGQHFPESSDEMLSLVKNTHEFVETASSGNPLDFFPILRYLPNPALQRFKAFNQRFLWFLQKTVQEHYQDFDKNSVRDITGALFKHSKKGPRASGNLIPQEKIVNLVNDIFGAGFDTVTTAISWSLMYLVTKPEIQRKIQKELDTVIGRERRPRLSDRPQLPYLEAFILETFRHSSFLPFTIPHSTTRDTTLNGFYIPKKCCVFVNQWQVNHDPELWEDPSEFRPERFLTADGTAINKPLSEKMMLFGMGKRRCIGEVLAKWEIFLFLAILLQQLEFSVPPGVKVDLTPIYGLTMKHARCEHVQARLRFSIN
Procedure: (§2) Compound (I) was tested for CYP450 inhibition using a cocktail of selective substrates. […] This might be addressed later in a clinical study.

[13] = molecular target: CYP 2D6 (Homo sapiens, UniProt P10635); assay: CYP450 inhibition, cocktail of selective substrates, 2D6; type: in vitro ADME; details: CYP 2D6, Bufuralol to 1′-hydroxybufuralol; read-out: IC50 of compound (I)
Chain of CYP 2D6 (P10635 whole entry): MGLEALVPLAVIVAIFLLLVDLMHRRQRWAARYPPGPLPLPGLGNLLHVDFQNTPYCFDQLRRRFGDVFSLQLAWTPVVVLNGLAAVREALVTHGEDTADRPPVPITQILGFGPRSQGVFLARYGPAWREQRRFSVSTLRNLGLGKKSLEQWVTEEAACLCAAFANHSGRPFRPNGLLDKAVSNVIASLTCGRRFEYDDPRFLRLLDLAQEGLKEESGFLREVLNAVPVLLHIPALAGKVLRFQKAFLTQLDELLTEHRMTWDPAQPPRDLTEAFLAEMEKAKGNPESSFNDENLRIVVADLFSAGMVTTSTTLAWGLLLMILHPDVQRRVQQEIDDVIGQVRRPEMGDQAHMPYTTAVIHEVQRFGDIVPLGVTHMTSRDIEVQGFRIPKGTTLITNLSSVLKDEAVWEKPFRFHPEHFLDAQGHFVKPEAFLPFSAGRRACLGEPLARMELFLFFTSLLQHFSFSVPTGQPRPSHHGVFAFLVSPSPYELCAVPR
Procedure: as §2

[14] = tested on: plasma protein; assay: Plasma protein binding by equilibrium dialysis, rat; type: in vitro ADME
Procedure: The plasma protein binding was tested in rat, mouse, dog and human plasma by equilibrium dialysis. The plasma protein binding of this compound is remarkably low (Table 24).

[15] = tested on: Salmonella typhimurium strains TA 100 and TA 98; assay: Ames screening test; type: cell-based; details: 1.6 to 5000 μg/plate, presence or absence of S-9 mix
Procedure: Compound (I) was tested for genotoxicity in the Ames screening test using Salmonella typhimurium strains TA 100 and TA 98. Compound (I) was tested at dose levels of 1.6 to 5000 μg/plate in the presence or absence of S-9 mix.

[16] = po, Female beagle dog, 2.5 mg/kg p.o.
[17] = po, Male beagle dog, 2.5 mg/kg p.o.

O=c1ccc2ccc(O[C@@H]3C[C@H]4CC[C@@H](C3)N4)cc2o1 [Compound (I), exo-7-(8-aza-bicyclo[3.2.1]oct-3-yloxy)-chromen-2-one]
Compound (I), % left after 1 d at 40° C. ([1]; Oxidation, 5% H2O2, 0.15 mM): 83%
Compound (I), % left after 3 h at 250 W/m^2 ([1]; Photostability at pH 7.4): 11%
% left after 26 d at 40° C. 75% rel. humidity in open container ([1]; Solid state stability): 100%
Compound (I), % left after 1 d at 40° C. ([1]; Stability at pH 1.0, 0.15 mM): 100%
Compound (I), % left after 1 d at 40° C. ([1]; Stability at pH 7.4, 0.15 mM): 100%
Ki [2]: 270 nM
IC50 [3]: 31 µM
inhibition at 10 µM [4]: 59%
5-HT (AUC0-160 min) ([5]; Hippocampus, 3 mg/kg s.c., 3 mg/kg): 433±53%
5-HT (AUC0-160 min) ([5]; N.Acc, 10 mg/kg s.c.): 151 ± 17%
5-HT (AUC0-160 min) ([5]; Pre-frontal cortex, 0.25 mg/kg s.c., 0.25 mg/kg): 190±15%
5-HT (AUC0-160 min) ([5]; Pre-frontal cortex, 1 mg/kg s.c., 1 mg/kg): 252±48%
5-HT (AUC0-160 min) ([5]; Pre-frontal cortex, 10 mg/kg s.c., 10 mg/kg): 263±47%
5-HT (AUC0-160 min) ([5]; Pre-frontal cortex, WAY100365 0.1 mg/kg + compound (I) 0.25 mg/kg): 253 ± 32%
5-HT (AUC0-160 min) ([5]; Striatum, 3 mg/kg s.c.): 138 ± 31%
5-HT (AUC0-160 min) ([5]; Striatum, 10 mg/kg s.c.): 170 ± 12%
MED ([6]; mFST (NMRI), p.o. 60 min): 1 mg/kg
MED ([6]; mFST, 0.03, 0.1, 0.3 mg/kg p.o. −60 min + WAY100635 0.1 mg/kg s.c. −60 min): 0.1 mg/kg
MED ([6]; mFST, 1, 3, 10 mg/kg p.o. −60 min + SCH23390 0.00375 mg/kg s.c. −60 min): 10 mg/kg
MED ([6]; mFST, 1, 3, 10 mg/kg p.o. −60 min + WAY100635 1 mg/kg s.c. −60 min): 1 mg/kg
Leftward shift in dose-response ([6]; mFST, with low dose of WAY100635): 10 fold
Rightward shift in dose-response ([6]; mFST, with non-sedative dose of SCH23390): 10 fold
MED [7]: <5 mg/kg
half-life ([8]; both sexes, beagle, dog, other: p.o. and i.v., the two dogs, after both p.o. and i.v. administration, read-out: T½): 84 to 102 min
CNS effects ([8]; dogs, after 2.5 mg/kg p.o.): some CNS effects were observed
AUC(0-inf) ([8]; iv, Female beagle dog, 0.5 mg/kg i.v., read-out: AUC(0-∞) i.v.): 194 ng·h/mL
half-life ([8]; iv, Female beagle dog, 0.5 mg/kg i.v., read-out: T½ i.v. (converted)): 84 min
AUC(0-inf) ([8]; iv, Male beagle dog, 0.5 mg/kg i.v., read-out: AUC(0-∞) i.v.): 343 ng·h/mL
half-life ([8]; iv, Male beagle dog, 0.5 mg/kg i.v., read-out: T½ i.v. (converted)): 96 min
Cmax [8, 16]: 339 ng/mL
Tmax [8, 16]: 30 min
bioavailability ([8]; po, Female beagle dog): 114%
AUC(0-inf) ([8]; po, Female beagle dog, 2.5 mg/kg p.o., read-out: AUC(0-∞) p.o.): 1110 ng·h/mL
half-life ([8]; po, Female beagle dog, 2.5 mg/kg p.o., read-out: T½ p.o. (converted)): 96 min
Cmax [8, 17]: 418 ng/mL
Tmax [8, 17]: 30 min
bioavailability ([8]; po, Male beagle dog): 84%
AUC(0-inf) ([8]; po, Male beagle dog, 2.5 mg/kg p.o., read-out: AUC(0-∞) p.o.): 1440 ng·h/mL
half-life ([8]; po, Male beagle dog, 2.5 mg/kg p.o., read-out: T½ p.o. (converted)): 102 min
Vd ([8]; Female beagle dog): 5 L/kg
clearance ([8]; Female beagle dog): 43.3 mL/min/kg
Vd ([8]; Male beagle dog): 3.4 L/kg
clearance ([8]; Male beagle dog): 25 mL/min/kg
AUC(0-t) ([9]; Brain): 9350 ng·h/mL
AUC(0-t) ([9]; Liver): 38500 ng·h/mL
AUC(0-t) ([9]; Lung): 35700 ng·h/mL
AUC(0-t) ([9]; Plasma): 2220 ng·h/mL
half-life ([9]; Brain): 180 min
half-life ([9]; Liver): 150 min
half-life ([9]; Lung): 132 min
half-life ([9]; Plasma): 66 min
Stability at 1 μM [10]: 89%
Stability at 5 μM [10]: 100%
Stability at 1 μM [11]: 88%
Stability at 5 μM [11]: 98%
IC50 [12]: 3.5 µM
IC50 [13]: 44 µM
fraction unbound at 81 ng/ml ([14]; 81 ng/ml): 0.566
fraction unbound at 271 ng/ml ([14]; 271 ng/ml): 0.65
fraction unbound at 813 ng/ml ([14]; 813 ng/ml): 0.582
fraction unbound at 2710 ng/ml ([14]; 2710 ng/ml): 0.635
Mutagenic activity (genotoxicity) [15]: did not show any evidence of mutagenic activity
